Consider three compounds from patent US20260224563A1, “CRYSTALLINE FORMS OF 6-(3-((5-CHLORO-2-METHOXYPYRIDINE)-3-SULFONAMIDO)-2,6-DIFLUOROPHENYL)-N-METHYLIMIDAZO[1,5-A]PYRAZINE-1-CARBOXAMIDE AND METHODS FOR USING THE SAME” (HIBERCELL, INC., priority 2023, published 2026).

What all share (type): physicochemical
The nature of data set [1]: Water activity study of the crystalline potassium salt forms (acetone/water suspension, XRPD). The note with it: for Relative stability of crystalline forms: versus Form III of the potassium salt. As to the method: A water activity study of the potassium salt forms was conducted in two groups: (i) Form I and Form III of the potassium salt, and (ii) Form II and Form III of the potassium salt.
Each suspension was shaken at 700 rpm in a shaker at 25° C., 35° C., 45° C., and 50° C., and the sample was analyzed by XRPD.

Data set [2] can be described thus: Heating of potassium salt forms (XRPD/DSC after heating).
Data set [3] can be described thus: Solid-state stability (60° C./closed and 40° C./75% relative humidity open, up to seven days; HPLC purity, XRPD). As to the method:
HPLC method for stability and solubility testing is listed below.
• Column: Ascentis® Express C18 4.6*150 mm*2.7 μm • Mobile Phase A: 0.05% trifluoroacetic acid in water • Mobile Phase B: Methanol • Gradient (T/B %): 0/10, 10/100, 13.5/10, 15/10 • Column Temperature: 40° C. • Detector: DAD; 220 nm • Flow rate: 1.0 mL/min • Injection volume: 1 μL • Concentration: 1 mg/mL • Run time: 15 minutes • Diluent: Methanol:Water 9:1 (v/v)
The solid-state stability of Form III of the potassium salt was performed using the following protocol: • (1) A sample of Form III of the potassium salt was placed at 60° C./closed and 40° C./75% relative humidity (open) conditions for up to seven days. At the onset of the test (day 0) and day 7 of the test, the sample was dissolved in a diluent to prepare a 1 mg/mL solution for HPLC purity analysis. The solid sample was analyzed by XRPD to assess the crystal form of each solid at day 7. […] The XRPD data confirmed the physicochemical stability of Form III of the potassium salt under both closed and open conditions. […]

Data set [4] in a line: Dynamic vapor sorption (DVS). The settings on record: for DVS weight gain: 25° C. As to the method: Moisture sorption/desorption data was collected on a Vsorp Dynamic Moisture Sorption Analyzer (ProUmid GmbH & Co. KG, Germany). The sample was placed into a tared sample chamber and automatically weighed.
• Equilibrium Condition: 0.01%/40 min • Time between weighing cycles: 10 minutes • Minimum time per climate cycle: 50 minutes • Maximum time per climate cycle: 2.0 hour • Balanced condition: 25° C. at 60% […] for 4 hours • Sample temperature: 25° C. • Adsorption: 70, 80, 90 • Desorption: 80, 70, 60, 50, 40, 30, 20, 10, 0 • Adsorption: 10, 20, 30, 40, 50, 60

The nature of data set [5]: Solubility in simulated biological fluid (FaSSGF and FaSSIF) at 37° C., HPLC; pH of filtrate, XRPD of filter cake. The settings on record: 0.5-hour mark. The method, then: Approximately between 15 mg and 24 mg of sample was suspended in 5 mL or 8 mL of FaSSGF or FaSSIF, respectively. The resulting suspension was shaken at 700 rpm with a QQMSC-100 shaker at 37° C. The suspension was sampled and filtered at certain time intervals, which was achieved by sampling 1000 μL of each suspension which was then filtered and diluted, diluting the resulting filtrate for HPLC analysis to assess solubility. The pH of the filtrate was measured, and the filter cake was analyzed by XRPD.
Approximately 15 mg to 24 mg of sample was suspended in 5 or 8 mL of FaSSGF or FaSSIF, respectively. The resulting suspension was shaken at 700 rpm with a QQMSC-100 shaker at 37° C. The suspension was sampled and filtered at certain time intervals, which was achieved by sampling 1000 μL of each suspension was filtered and diluted, diluting the resulting filtrate for HPLC analysis to assess solubility. The pH of the filtrate was measured, and the filter cake was analyzed by XRPD.
Approximately 15 mg to 24 mg of sample was suspended in 5 or 8 mL of FaSSGF or FaSSIF, respectively. The resulting suspension was shaken at 700 rpm with a QQMSC-100 shaker at 37° C. The suspension was sampled and filtered in certain time interval, which was achieved by sampling 1000 μL of each suspension was filtered and diluted, diluting the resulting filtrate for HPLC analysis to assess solubility. The pH of the filtrate was measured, and the filter cake was analyzed by XRPD.

Structures are written as SMILES. Structures can show the parent of a compound that is named as a salt. Some results are limits rather than exact numbers.

Take `CNC(=O)c1ncn2cc(-c3c(F)ccc(NS(=O)(=O)c4cc(Cl)cnc4OC)c3F)ncc12` [Potassium salt Form I, 6-(3-((5-chloro-2-methoxypyridine)-3-sulfonamido)-2,6-difluorophenyl)-N-methylimidazo[1,5-a]pyrazine-1-carboxamide]: the “Time of conversion to Form III of the potassium salt” value in data set [1] (KF wt. %>0.19, 25-50° C., KF wt. %~0.1, 25° C. in acetone/water) is at most 1 days. The “Relative stability of crystalline forms” value in data set [1] (KF wt. %≤0.1 at 35-50° C. in acetone/water) is given as “more stable”. Moreover, the “Stability of the hydrate” value in data set [2] (24° C.±2° C. and 50-80% relative humidity) was “stable”. In addition, the “Changes to XRPD pattern or DSC thermogram upon heating” value in data set [2] (heating to 180° C.) is recorded as “No changes”.

As to `CNC(=O)c1ncn2cc(-c3c(F)ccc(NS(=O)(=O)c4cc(Cl)cnc4OC)c3F)ncc12` [Sodium salt Form III, 6-(3-((5-chloro-2-methoxypyridine)-3-sulfonamido)-2,6-difluorophenyl)-N-methylimidazo[1,5-a]pyrazine-1-carboxamide], the “Purity (Area %) 220 nm” value in data set [3] (0 day) worked out at 99.87 Area %; in data set [3] (40° C./75% RH (open), 7 days) it was 99.87 Area %; in data set [3] (60° C./closed, 7 days), 99.85 Area %. Further, the “physical and chemical stability” value in data set [3] (both closed (60° C.) and open (40° C./75% RH) conditions for seven days) was “maintained physical and chemical stability”. Besides, the DVS weight gain was 2.6% in data set [4] (0 to 30% relative humidity); “around 2.6%” in data set [4] (0 to 30% relative humidity, listed as Form III of the sodium salt); 3.3% in data set [4] (0 to 80% relative humidity); 4.7% in data set [4] (0 to 90% relative humidity); “around 0.7%” in data set [4] (60 to 80% relative humidity, listed as Form III of the sodium salt); 1.4% in data set [4] (80 to 90% relative humidity). The “XRPD pattern after DVS testing” value in data set [4] (listed as Form III of the sodium salt) was “did not change”. Further, the results for the “times more soluble than the free acid (Form II)” value in data set [5] (FaSSGF) and in data set [5] (FaSSIF) were “about 230 times” and “about 100 times”, respectively.

As for `CNC(=O)c1ncn2cc(-c3c(F)ccc(NS(=O)(=O)c4cc(Cl)cnc4OC)c3F)ncc12` [Potassium salt Form II, 6-(3-((5-chloro-2-methoxypyridine)-3-sulfonamido)-2,6-difluorophenyl)-N-methylimidazo[1,5-a]pyrazine-1-carboxamide], in data set [1] (aw≥0.93 at temperatures≤25° C.), the “Relative stability of crystalline forms” value was “more stable”. Besides, the “Changes to XRPD patterns and DSC thermograms after heating” value in data set [2] (heating to 160° C.) is “slight change”.
